The compounds below were run against human Plasma Kallikrein (KLKB1) (Homo sapiens (Human), UniProt P03952) (assay: Inhibition of KLKB1 endpoint assay). Conditions: fluorogenic substrate H-Pro-Phe-Arg-AMC, 1 hr at Room Temperature, read-out: IC50 measurements for the inhibition of human Plasma Kallikrein (KLKB1).
Format: biochemical
Experimental: The ability of compounds of Formula I to inhibit plasma kallikrein (KLKB1), Factor XIIa (FXIIa), Factor XIa (FXIa), Factor Xa (FXa), Factor IIa (alpha-thrombin; FIIa), plasmin, trypsin, tissue kallikrein 1 (KLK1), Factor VIIa (FVIIa), or FVIIa complexed with Tissue Factor, phospholipids and CaCl2 (FVIIa/TF/PL/CaCl2) was determined using the following biochemical assays in assay buffer (100 mM Tris, 150 mM NaCL, adjusted to a pH of 7.8 with HCl, and containing 0.1% (w/v) BSA and 0.05% (v/v) Tween20) in the presence of 1% (v/v) DMSO:
Evaluation of the Inhibition of KLKB1 Using an Endpoint Assay
Subsequently, PPACK II (Calbiochem) was added as a stop solution to achieve a final concentration of 1 μM and fluorescence was measured using an Envision Reader (PerkinElmer) with the wavelength excitation setting of 355 nm and the wavelength emission setting of 460 nm.
The IC50 values were obtained with the aid of the inhibition of KLKB1 endpoint assay described above.

human Plasma Kallikrein (KLKB1), sequence (P03952 391-638): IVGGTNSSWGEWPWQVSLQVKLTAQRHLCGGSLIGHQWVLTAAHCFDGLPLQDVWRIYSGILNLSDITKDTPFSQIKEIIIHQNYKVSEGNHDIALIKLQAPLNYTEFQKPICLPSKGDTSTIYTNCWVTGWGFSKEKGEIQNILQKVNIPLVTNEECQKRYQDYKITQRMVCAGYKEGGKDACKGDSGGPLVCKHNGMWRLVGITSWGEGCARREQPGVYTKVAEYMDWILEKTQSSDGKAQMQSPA
human Plasma Kallikrein (KLKB1), sequence (P03952 20-390 partner): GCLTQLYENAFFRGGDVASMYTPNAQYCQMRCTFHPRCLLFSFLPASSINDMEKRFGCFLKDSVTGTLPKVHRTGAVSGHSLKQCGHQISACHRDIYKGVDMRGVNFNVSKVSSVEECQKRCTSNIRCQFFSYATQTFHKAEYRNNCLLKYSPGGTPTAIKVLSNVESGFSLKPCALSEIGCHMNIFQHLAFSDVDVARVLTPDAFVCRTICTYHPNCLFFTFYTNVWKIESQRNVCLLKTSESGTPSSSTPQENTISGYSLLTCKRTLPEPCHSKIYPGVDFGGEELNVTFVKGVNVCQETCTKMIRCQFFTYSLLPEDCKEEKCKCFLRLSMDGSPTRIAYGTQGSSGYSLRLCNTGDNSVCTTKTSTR

| Structure (SMILES) | IC50 [µM] |
| --- | --- |
| CC(c1ccc(N2CC3CC3C2)nc1)n1cc(C(=O)N[C@@H]2CCc3c2ccnc3N)cn1 (single isomer, unassigned) [Example 72] | 0.01 |
| CC(c1ccc(N2CC3CC3C2)nc1)n1cc(C(=O)N[C@@H]2CCc3c2ccnc3N)cn1 (single isomer, unassigned) [Example 73] | 0.006 |
| Nc1ccc2c(n1)CC[C@H]2NC(=O)c1cnn(Cc2ccc(CN3C[C@H]4C[C@H]4C3=O)cc2)c1 [Example 1, 1-[4-((1R,5S)-2-Oxo-3-aza-bicyclo[3.1.0]hex-3-ylmethyl)-benzyl]-1H-pyrazole-4-carboxylic acid ((R)-2-amino-6,7-dihydro-5H-[1]pyrindin-5-yl)-amide] | 0.53 |
| Nc1ccc2c(n1)CCC2NC(=O)c1cnn(Cc2ccc(N3CCN4CCCC4C3)cc2)c1 (centres unmarked) [Example 2] | 2.1 |
| Nc1ccc2c(n1)CC[C@H]2NC(=O)c1cnn(Cc2ccc(CN3C[C@@H]4C[C@@H]4C3=O)cc2)c1 [Example 3] | 0.017 |
| Nc1ccc2c(n1)CCC2NC(=O)c1cn(Cc2ccc(CN3CC4CC4C3=O)cc2)nc1C(F)(F)F (centres unmarked) [Example 4] | 0.063 |
| Nc1nccc2c1CCC2NC(=O)c1cnn(Cc2ccc(CN3CC4CC4C3=O)cc2)c1 (centres unmarked) [Example 5] | 0.01 |
| Nc1cc2c(cn1)CCC2NC(=O)c1cnn(Cc2ccc(CN3CC4CC4C3=O)cc2)c1 (centres unmarked) [Example 6] | 0.071 |
| Nc1ccc2c(n1)CC[C@H]2NC(=O)c1cn(Cc2ccc(CN3C[C@H]4C[C@H]4C3=O)cc2)nc1C(F)(F)F [Example 7] | 0.42 |
| Nc1ccc2c(n1)CC[C@H]2NC(=O)c1cn(Cc2ccc(CN3C[C@@H]4C[C@@H]4C3=O)cc2)nc1C(F)(F)F [Example 8] | 0.014 |
| Nc1ccc2c(n1)CCC2NC(=O)c1cn(Cc2ccc(N3CCN4CCCCC4C3=O)cc2)nn1 (centres unmarked) [Example 9] | 3.2 |
| Nc1ccc2c(n1)CCC2NC(=O)c1cn(Cc2ccc(Cn3cc4c(n3)CCOC4)cc2)nn1 (centres unmarked) [Example 10] | 0.56 |
| Nc1ccc2c(n1)CCC2NC(=O)c1cn(Cc2ccc(CN3CCN4C(=O)CCCC4C3)cc2)nn1 (centres unmarked) [Example 11] | > 10 |
| Nc1nccc2c1C(NC(=O)c1cn(Cc3ccc(N4CCN5CCCCC5C4=O)cc3)nn1)CC2 (centres unmarked) [Example 12] | > 10 |
| Nc1cc2c(cn1)C(NC(=O)c1cn(Cc3ccc(N4CCN5CCCCC5C4=O)cc3)nn1)CC2 (centres unmarked) [Example 13] | > 10 |
| Nc1ccc2c(n1)CCC2NC(=O)c1cn(Cc2ccc(CN3CCN4CCCC4C3=O)cc2)nn1 (centres unmarked) [Example 14] | 5.9 |
| Nc1ccc2c(n1)CCC2NC(=O)c1cnn(Cc2ccc(CN3CC4CC4C3=O)cc2)c1 (centres unmarked) [Example 15] | 0.081 |
| Cc1nn(Cc2ccc(CN3CC4CC4C3=O)cc2)cc1C(=O)NC1CCc2nc(N)ccc21 (centres unmarked) [Example 16] | 0.085 |
| Cc1cc(N)nc2c1C(NC(=O)c1cnn(Cc3ccc(CN4CC5CC5C4=O)cc3)c1)CC2 (centres unmarked) [Example 17] | 0.042 |
| Cc1cc(Cn2cc(C(=O)NC3CCc4nc(N)ccc43)nn2)ccc1N1CCN2CCCCC2C1=O (centres unmarked) [Example 18] | 1.2 |
| Cc1cc(N)nc2c1C(NC(=O)c1cn(Cc3ccc(N4CCN5CCCCC5C4=O)cc3)nn1)CC2 (centres unmarked) [Example 19] | 2.6 |
| Nc1ccc2c(n1)CC[C@H]2NC(=O)c1cnn(Cc2ccc(CN3CC4CC4C3=O)c(C(F)(F)F)c2)c1 (some centres unmarked) [Example 22] | 0.019 |
| Nc1nccc2c1CC[C@H]2NC(=O)c1cnn(Cc2ccc(CN3CC4CC4CC3=O)cc2)c1 (some centres unmarked) [Example 23] | 0.002 |
| Nc1cc(C(F)(F)F)c2c(n1)CCC2NC(=O)c1cnn(Cc2ccc(CN3CC4CC4C3=O)cc2)c1 (centres unmarked) [Example 24] | 3.3 |
| Nc1ccc2c(n1)CCC2NC(=O)c1cn(Cc2ccc(-n3cc4c(n3)CCOC4)cc2)nn1 (centres unmarked) [Example 27] | > 10 |
| Nc1ccc2c(n1)CCC2NC(=O)c1cn(Cc2ccc(C3CC4CCCN4C3=O)cc2)nn1 (centres unmarked) [Example 29] | 2.2 |

More lines, now with the values ahead:

| IC50 [µM] | Structure (SMILES) |
| --- | --- |
| 0.069 | Nc1nccc2c1CCC2NC(=O)c1cnn(Cc2ccc(CN3C[C@@H]4C[C@@H]4C3=O)cc2)c1 (single isomer, unassigned) [Example 48] |
| 0.002 | Nc1nccc2c1CCC2NC(=O)c1cnn(Cc2ccc(CN3C[C@@H]4C[C@@H]4C3=O)cc2)c1 (single isomer, unassigned) [Example 49] |
| 0.001 | Nc1nccc2c1CCC2NC(=O)c1cn(Cc2ccc(CN3C[C@@H]4C[C@@H]4C3=O)cc2)nc1C(F)(F)F (single isomer, unassigned) [Example 50] |
| 0.089 | Nc1nccc2c1CCC2NC(=O)c1cn(Cc2ccc(CN3C[C@@H]4C[C@@H]4C3=O)cc2)nc1C(F)(F)F (single isomer, unassigned) [Example 51] |
| 0.041 | Nc1nccc2c1CC[C@H]2NC(=O)c1cnn(Cc2ccc(CN3CC4CC4C3=O)c(C(F)(F)F)c2)c1 (single isomer, unassigned) [Example 52] |
| 0.001 | Nc1nccc2c1CC[C@H]2NC(=O)c1cnn(Cc2ccc(CN3CC4CC4C3=O)c(C(F)(F)F)c2)c1 (single isomer, unassigned) [Example 53] |
| 0.046 | Nc1nccc2c1CCC2NC(=O)c1cnn(Cc2ccc(CN3C[C@H]4C[C@H]4C3=O)cc2)c1 (single isomer, unassigned) [Example 54] |
| 0.49 | Nc1nccc2c1CCC2NC(=O)c1cnn(Cc2ccc(CN3C[C@H]4C[C@H]4C3=O)cc2)c1 (single isomer, unassigned) [Example 55] |
| 1.2 | Cc1cc(Cn2cc(C(=O)N[C@@H]3CCc4c3ccnc4N)nn2)ccc1N1CCN2CCCCC2C1=O (single isomer, unassigned) [Example 56] |
| 6.2 | Cc1cc(Cn2cc(C(=O)N[C@@H]3CCc4c3ccnc4N)nn2)ccc1N1CCN2CCCCC2C1=O (single isomer, unassigned) [Example 57] |
| 1.6 | Cc1cc(Cn2cc(C(=O)N[C@@H]3CCc4c3ccnc4N)nn2)ccc1N1CCN2CCCC2C1=O (single isomer, unassigned) [Example 58] |
| 2.2 | Cc1cc(Cn2cc(C(=O)N[C@@H]3CCc4c3ccnc4N)nn2)ccc1N1CCN2CCCC2C1=O (single isomer, unassigned) [Example 59] |
| 0.47 | Cc1cc(Cn2cc(C(=O)N[C@@H]3CCc4nc(N)ccc43)cn2)ccc1CN1CC2CC2C1=O (single isomer, unassigned) [Example 67] |
| 0.01 | Cc1cc(Cn2cc(C(=O)N[C@@H]3CCc4nc(N)ccc43)cn2)ccc1CN1CC2CC2C1=O (single isomer, unassigned) [Example 68] |
| 0.024 | Nc1ccc2c(n1)CC[C@H]2NC(=O)c1cn(Cc2ccc(N3CC4CC4C3)nc2)nn1 (some centres unmarked) [Example 32] |
| 0.002 | Nc1nccc2c1CC[C@H]2NC(=O)c1cn(Cc2ccc(N3CC4CC4C3)nc2)nn1 (some centres unmarked) [Example 33] |
| 0.39 | Nc1nccc2c1CC[C@H]2NC(=O)c1cn(Cc2ccc(N3CC(=O)N4CCCC4C3)nc2)nn1 (some centres unmarked) [Example 34] |
| 0.6 | Nc1nccc2c1CC[C@H]2NC(=O)c1cn(Cc2ccc(N3CCN4C(=O)COCC4C3)nc2)nn1 (some centres unmarked) [Example 35] |
| 0.001 | Nc1nccc2c1CC[C@H]2NC(=O)c1cnn(Cc2ccc(N3CC4CC4C3)nc2C(F)(F)F)c1 (some centres unmarked) [Example 36] |
| 0.008 | Nc1ccc2c(n1)CC[C@H]2NC(=O)c1cnn(Cc2ccc(N3CC4CC4C3)nc2C(F)(F)F)c1 (some centres unmarked) [Example 37] |
| 0.001 | Nc1nccc2c1CC[C@H]2NC(=O)c1cn(Cc2ccc(N3CC4CC4C3)nc2C(F)(F)F)nn1 (some centres unmarked) [Example 38] |

— US10640486B2, “Heteroarylcarboxamide derivatives as plasma kallikrein inhibitors” (Boehringer Ingelheim International GmbH, priority 2015, dated 2020)
